Columns and labels:
NF-κB = NF-κB reporter macrophage luciferase assay (RAW264.7); assay type: cell-based, murine
Procedure: NF-κB signaling activation was assessed by luciferase activity assay. RAW264.7 cells stably transfected with the 3×-κB-luc plasmid (DNA construct containing three NF-κB sites from the Ig κ light chain promoter coupled to the gene encoding firefly luciferase) were grown in DMEM medium supplemented with 10% heat-inactivated fetal bovine serum, penicillin (100 U/ml), streptomycin (100 μg/ml), L-glutamine (2 mM). Cells were seeded in F-bottom 96-well […] metabolites at different concentrations (6-BT 0,1-100 μM, LysoPC(20:0) 1-10 μM, 16:0-18:2 PE 1-50 μM, MA-GPC 1-100 μM). Afterwards, cells were lysed with 25 μl/well 1×passive lysis buffer and firefly luciferase activity was measured by LUCIFERASE® Assay System (Promega, E1500) on a GLOMAX @-Multi Detection System (Promega).

[1] = test system: murine bone marrow-isolated monocytes or bone marrow-derived macrophages; test: In vitro stimulation of murine monocytes / bone marrow-derived macrophages, cytokine ELISA; assay type: cell-based
Procedure: Naïve bone marrow monocytes were isolated from BM cells. Briefly, hind legs were removed from 3 mice, cleaned from surrounding muscles. The femur and tibia bones were trimmed at their extremities, the BM content was flushed out with cold PBS using a 10 ml syringe and a 25G needle and filtered through a 40 μm strainer. Red blood cells (RBC) were lysed with 1× RBC lysis buffer (Biolegend) for 5 min. on ice. CD11b+ monocytes were further purified by positive selection using a cocktail of CD11 b magnetic beads (Miltenyi Biotec, #130-049-601) and magnetizing MS columns (Miltenyi Biote) according to the manufacturer's instructions. Subsequently, monocytes were seeded in F-bottom 96-well plates at 1×10^5 cells per well in RPMI1640 supplemented with 10% heat-inactivated fetal bovine serum, penicillin (100 U/ml), streptomycin (100 μg/ml), L-glutamine (2 mM) […]. Monocytes were activated with 10 μg/ml LPS (Sigma-Aldrich) and subjected to treatment with 6-BT (10/100 μM), LysoPC(20:0) (10/50 μM), MA-GPC (10/50/100 μM), or appropriate vehicle. Cells were kept in a final volume of 200 μl/well for 24 hours, after which supernatant was harvested and stored at −80° C.
Bone marrow-derived macrophages (BMDM) and DC (BMDC) were obtained by differentiating freshly isolated BM cells from femur and tibia bones (as above described) of C57/B16 mice (N=3 per experiment). For BMDM, BM cells were seeded at 3×10^6 cells per 10 cm dish and cultured for 7 days in 12 ml RPMI1640 medium with 20% fetal bovine serum, 30% L-929 cell conditioned media, as source of murine macrophage colony-stimulating factor (M-CSF). For BMDC, BM cells were seeded at 0.5×10^6/ml cells in 25 ml in 10 cm dishes and cultured for 7 days in presence of GM-CSF in 5% FBS-RPMI1640 medium. After differentiation, BMDM/DCs were harvested, counted and seeded at a density of 1×10^5 cells per well in a F-bottom 96-well plate and left to adhere for 20 hours before experiments were performed. Macrophages were activated with 10 μg/ml polyinosinic-polycytidylic acid poly(I.C) (InvivoGen) for 24 hours in presence or not of 6-BT (10/100 μM), LysoPC(20:0) (10/50 μM), or MA-GPC (10/50/100 μM) in a final volume of 200 μl/well. At the end of the assay, supernatant was harvested and stored at −80° C.
Specific ELISAs (R&D Systems) were utilized to measure the concentration of TNFα, IFNβ, and IFNγ in cell supernatant of murine monocytes, macrophages ad T cells, respectively, according to the manufacturer's instructions. The concentration of insulin after 24-hour treatment with metabolites or after GSIS were determined using Rat insulin ELISA (Mercodia) according to the manufacturer's instructions. GSIS was calculated by subtracting the concentration of insulin at 1 mM glucose to the insulin rate at 22 mM glucose.
Here, murine bone marrow-isolated monocytes (Christ A., Western Diet Triggers NLRP3-Dependent Innate Immune Reprogramming. Cell 2018) or bone marrow-derived macrophages (Swanson K V, A noncanonical function of cGAMP in inflammasome priming and activation. JEM 2017) were exposed for 24 hours to the indicated concentrations of 6-BT (10-100 μM) in presence or not of 10 μg/ml LPS, 10 μg/ml P3C or 10 μg/ml poly(I.C).

INS1E beta cells = test: Seahorse XF intracellular metabolism, INS1E beta cells; assay type: cell-based, rat
Text: Lastly, it was investigated whether 6-BT may influence the mitochondrial metabolism of beta cells, which rely on ATP and mitochondrial metabolite production for insulin exocytosis. […] Intracellular metabolism measured using a Seahorse XF Analyzer Uchimura T., The Innate Immune Sensor NLRC3 Acts as a Rheostat that Fine-Tunes T Cell Responses in Infection and Autoimmunity.

Structure (SMILES): N[C@@H](Cc1c[nH]c2cc(Br)ccc12)C(=O)O [6-BT, 6-bromotryptophan]
- NFκB pathway activation in macrophages (NF-κB; RAW264.7 3x-κB-luc, LPS 10/100 ng/ml 2 hours, different doses (FIG. 7)): can inhibit NFκB pathway activation
- transcriptional activity of the NFkB complex (NF-κB; RAW264.7 NFkB luciferase reporter, overnight exposure 10-200 μM, 2 hours LPS (10 μg/ml) (FIG. 19)): inhibits the transcriptional activity of the NFkB complex in a dose-dependent manner
- secretion of TNFα upon TLR4 engagement ([1]; 10-100 μM, 24 hours, 10 μg/ml LPS, ELISA (FIG. 14)): can inhibit the secretion
- secretion of TNFα upon TLR2 engagement ([1]; 10-100 μM, 24 hours, 10 μg/ml P3C, ELISA (FIG. 14)): can inhibit the secretion
- secretion of IFNbeta upon TLR3 activation ([1]; 10-100 μM, 24 hours, 10 μg/ml poly(I.C), ELISA (FIG. 14)): can inhibit the secretion
- type 1 IFN secretion ([1]; PolyI:C for 24 hours, TLR3 stimulation (FIG. 9)): impair type 1 IFN secretion
- anti-inflammatory effects on monocytes ([1]; monocytes isolated from murine bone marrow, 6-BT vs tryptophan): anti-inflammatory effects are specific for the 6-bromotryptophan molecule
- cytokine secretion by monocytes ([1]; murine monocytes CD11b+ activated with LPS (10 μg/ml) for 24 hours, TLR4 stimulation (FIG. 8)): halt cytokine secretion
- mitochondria metabolism at steady-state (INS1E beta cells; INS1E beta cells (FIG. 24)): increased mitochondria metabolism
- mitochondria metabolism under hyperglycemia (INS1E beta cells; INS1E beta cells, 25 mM glucose (FIG. 24)): increased mitochondria metabolism

Reference: US12648928B2, “Intervention strategy for prevention or treatment of diabetes mellitus, autoimmune disease, inflammatory disease or cardiovascular disease” (ACADEMISCH MEDISCH CENTRUM, priority 2020, dated 2026)
